Measurements published in patent US20110245105A1, “Methods and Kits for Direct Detection and Susceptibility Profiling of Beta-Lactam Resistant Bacteria” (YISSUM RESEARCH DEVELOPMENT COMPANY OF THE HEBREW …, priority 2008, published 2011).

Key:
[1] = tested on: carbapenemase; assay: detection of carbapenemase activity in clinical urine samples; type: biochemical; conditions: urine pellet streak; 12 min at room temperature; 5.0-30 mg/mL substrate
Experimental: Activated ART strip impregnated with 30 μL of an aqueous solution of 30, […], 20, 15, 10 and 5.0 mg/mL imipenem (Ipm) or ertapenem (Etp) in positions 1, 2, 3, 4 and 5 on the strip, respectively, was placed in contact with a slide streaked with a urine pellet sample (Ipm+Sam. or Etp+Sam.), or an unstreaked slide (Ipm Cont. or Etp Cont.), […] reaction to appear. Abbreviations: Cont. (control), Etp. (ertapenem), Ipm. (imipenem), sam. (sample).
The product of the enzymatic degradation of a beta-lactam antibiotic removes the iodine from the ART strip and causes local decolorization in that strip. Typically, a detection kit consists of two slides, as illustrated in FIG. 2. The bottom slide is streaked with the sample to be tested. The top slide (lid) carries the ART strip which is activated when each test area on the strip receives 25 μL of the activator solution consisting of 40 mg gelatin in 100 mL phosphate buffer pH 6.5. The test starts when the top slide carrying the freshly activated ART strip contacts the bottom slide carrying the sample. […]
Urine samples were concentrated by a two minute centrifugation step at 3000 RPM and the resulting pellet was streaked on standard slides. […] As shown by the figure, the carbapenemase activity is easily detected using this method, even in samples containing low concentrations of antibiotic substrates.

[2] = tested on: E. coli; assay: ART strip (Antibiotics Resistance Test), iodometric detection of beta-lactam hydrolysis by un-cultured urine sample pellets; type: cell-based
Experimental: (§1) Filter paper (Whatman no. 3) strips impregnated with 50 mM potassium iodide and 10 mM iodine in 0.75% aqueous starch solution were divided into 6 test areas. Appropriate antibiotic substrates were prepared at a final concentration of 20 mg/mL. Each test area was impregnated with 30 μL of the appropriate solution. The strips were then dried in a lyophilizer and stored with a desiccant at 4° C.
(§2) One mL urine samples were spun 2 minutes at 3000 RPM in room temperature. Supernatants were removed and aliquots of the resulting pellets were streaked on standard slides.
(§3) The product of the enzymatic degradation of a beta-lactam antibiotic removes the iodine from the ART strip and causes local decolorization in that strip. Typically, a detection kit consists of two slides, as illustrated in FIG. 2. The bottom slide is streaked with the sample to be tested. The top slide (lid) carries the ART strip which is activated when each test area on the strip receives 25 μL of the activator solution consisting of 40 mg gelatin in 100 mL phosphate buffer pH 6.5. The test starts when the top slide carrying the freshly activated ART strip contacts the bottom slide carrying the sample. It may be carried out at ambient temperatures but will be accelerated by warming-up to 41° C. […] Result is confirmed if no decolorization took place in the absence of the bacteria (the background of that test area) or in the absence of the antibiotic (as in Test Area 2 in FIG. 1).
(§4) One mL urine sample pellets were collected as described in Example 1 and each streaked on a slide. The strip of the invention (termed ART for Antibiotics Resistance Test) was used to test for beta-lactamase and its ability to degrade Ceftazidime [Caz], Ceftriaxone [Cro], Cefuroxime [Cxm] and Ampicillin [Amp]. The strip, containing iodine and starch and divided to areas containing each of the abovementioned antibiotics, and attached to a plain slide, was activated as shown above, and placed on the streaked slide. After 5-15 minutes at 33° C.-38° C. the slide was scanned and recorded.

[3] = tested on: Acinetobacter sp.; assay: ART strip test on urine sample pellets; type: cell-based; conditions: 1 sample (r29)
Experimental: as §1, §2, §3, §4

[4] = tested on: Citr. koseri; assay: ART strip test on urine sample pellets; type: cell-based; conditions: 2 samples (r25)
Experimental: as §1, §2, §3, §4

[5] = tested on: E. faecalis; assay: ART strip test on urine sample pellets; type: cell-based; conditions: 4 samples (r27)
Experimental: as §1, §2, §3, §4

[6] = tested on: K. oxytoca; assay: ART strip test on urine sample pellets; type: cell-based
Experimental: as §1, §2, §3, §4

[7] = tested on: K. pneumoniae; assay: ART strip test on urine sample pellets; type: cell-based
Experimental: as §1, §2, §3, §4

[8] = tested on: Morg. morganii; assay: ART strip test on urine sample pellets; type: cell-based
Experimental: as §1, §2, §3, §4

[9] = tested on: Prot. mirabilis; assay: ART strip test on urine sample pellets; type: cell-based
Experimental: as §1, §2, §3, §4

[10] = tested on: Staphylococcus sp.; assay: ART strip test on urine sample pellets; type: cell-based
Experimental: as §1, §2, §3, §4

[11] = tested on: Str. agalactiae; assay: ART strip test on urine sample pellets; type: cell-based; conditions: 3 samples (r34)
Experimental: as §1, §2, §3, §4

[12] = tested on: Prot. mirabilis; assay: conventional lab procedures [CLP], resistance of bacterial isolates; type: cell-based; conditions: 1 sample (r18)
Source text: (§5) The same specimens were examined using conventional lab procedures [CLP] that determined the identity of the bacterial isolates and their resistance to the above beta-lactams.

[13] = tested on: Citrobacter freundii; assay: modular antibiotic resistance detection kit on urine sample pellets; type: cell-based
Experimental: (§6) A modular antibiotic resistance detection kit offers more flexibility in testing different resistance profiles. In the modular detection kit exemplified here, the ART strip is replaced by filter paper segments glued to a slide, each segment impregnated with a single antibiotic.
(§7) Specifically, pathogen samples were tested using filter papers impregnated with the following beta-lactam antibiotics: ampicillin [Amp], augmentin (a combination of amoxicillin and clavulanic acid) [AMC], clavulanic acid (Reduced Resistance test) [RR], ceftazidime [Caz] and either imipenem or meropenem [CPM]. The impregnation details of the fragments were as in the previous Examples.
(§8) Filter paper (Whatman no. 3] strips impregnated with Assay Reagent solution were used as “indicator strips”. An indicator strip was attached to the plain top slide as shown in FIG. 2. Aliquots of the pellets of the urine samples tested were placed on each of the segments. The test was started by placing the activated indicator-strip-slide, on the modular antibiotic slide. The scan results obtained after 5-10 min at 38° C. are illustrated schematically in FIG. 2 where all segments, except for the negative (no antibiotic) control, show decolorization indicating resistance to each antibiotic in that array.
(§9) Samples resistant to ceftazidime but affected by clavulanic acid were assumed to contain extended spectrum beta lactamases (ESBLs). The ‘Confirmed’ detections column summarizes the number of CLP-validated results out of the total findings recorded.

[14] = tested on: E. coli; assay: as above; type: cell-based
Experimental: as §6, §7, §8, §9

[15] = tested on: K. pneumoniae; assay: as above; type: cell-based
Experimental: as §6, §7, §8, §9

[16] = tested on: Proteus mirabilis; assay: as above; type: cell-based
Experimental: as §6, §7, §8, §9

[17] = tested on: K. oxytoca; assay: conventional lab procedures [CLP], resistance of bacterial isolates; type: cell-based; conditions: 1 sample (r15)
Source text: as §5

[18] = tested on: K. pneumoniae; assay: as above; type: cell-based; conditions: 1 sample (r12)
Source text: as §5

[19] = tested on: carbapenem-resistant Enterobacteriaceae; assay: modular kit for detection of CRE in urine sample; type: cell-based; conditions: CRE-containing urine sample; as part of augmentin
Experimental: The kit constructed as a twin-slide [as illustrated by FIG. 1] carries an “OCTET” strip impregnated [as in Example 1] with an array of eight beta-lactam antibiotics and 1 non-beta-lactam control [S].
To illustrate the life-saving potential of the proposed technology which eliminates delays in diagnosis of carbapenem-resistant members of the Enterobacteriaceae family (CRE), a CRE sample was analyzed using the invention's modular kit, containing ampicillin, ceftazidime, augmentin, cefotaxime, imipenem, cefuroxime, meropenem and ceftriaxone as beta-lactamase substrates and a non-beta-lactam antibiotic, served as a negative control.
Filter paper segments were glued to a slide, each segment impregnated with a single antibiotic of the abovementioned antibiotics and streaked with carbapenem-resistant Enterobacteriaceae-containing urine sample pellets, prepared as described in Examples 1 to 3. The slide was contacted with indicator strips attached to a slide.

[20] = 28 samples (r6), 5-15 minutes at 33° C.-38° C.

| SMILES | resistance profile predicted by ART ([2]; 3 samples (r8), MDR) | resistance profile predicted by ART ([2]; 12 samples (r7)) | resistance profile predicted by ART [2, 20] | resistance profile predicted by ART [3] | resistance profile predicted by ART [4] | resistance profile predicted by ART [5] | resistance profile predicted by ART ([6]; 1 sample (r15)) | resistance profile predicted by ART ([6]; 3 samples (r14)) | resistance profile predicted by ART ([7]; 1 sample (r12)) | resistance profile predicted by ART ([7]; 8 samples (r11)) | resistance profile predicted by ART ([7]; 11 samples (r10), MDR) | resistance profile predicted by ART ([8]; 1 sample (r22)) | resistance profile predicted by ART ([8]; 1 sample (r23)) | resistance profile predicted by ART ([9]; 1 sample (r18)) | resistance profile predicted by ART ([9]; 1 sample (r19)) | resistance profile predicted by ART ([9]; 1 sample (r20)) | resistance profile predicted by ART ([9]; 6 samples (r17)) | resistance profile predicted by ART ([10]; 1 sample (r31)) | resistance profile predicted by ART ([10]; 1 sample (r32)) | resistance profile predicted by ART [11] | further results |
| --- | --- | --- | --- | --- | --- | --- | --- | --- | --- | --- | --- | --- | --- | --- | --- | --- | --- | --- | --- | --- | --- |
| C[C@@H](O)[C@H]1C(=O)N2C(C(=O)O)=C(S[C@@H]3CN[C@H](C(=O)Nc4cccc(C(=O)O)c4)C3)[C@H](C)[C@H]12 [Ert, ertapenem] | – | – | – | – | – | – | – | – | – | – | – | – | – | – | – | – | – | – | – | – | hydrolysis by carbapenemase in the sample (decolorization of strip) [1]: hydrolyzing |
| CC1(C)S[C@@H]2[C@H](NC(=O)[C@H](N)c3ccccc3)C(=O)N2[C@H]1C(=O)O [Amp, Ampicillin] | R | S | R | S | R | S | R | R | R | R | R | R | R | R | R | R | R | R | S | S | CLP result differing from ART (in brackets) [12]: S; resistance found with modular kit ([13]; profile r23, ESBL Pos): R; resistance found with modular kit ([14]; E. coli (16 samples), profile r6, ESBL Neg, 5-10 min at 38° C.): S; resistance found with modular kit ([14]; E. coli, profile r7): S; resistance found with modular kit ([14]; E. coli, profile r8): R; resistance found with modular kit ([14]; E. coli, profile r9, ESBL Neg): R; resistance found with modular kit ([14]; E. coli, profile r10, ESBL Neg): R; resistance found with modular kit ([14]; E. coli, profile r11, ESBL Neg): R; resistance found with modular kit ([14]; E. coli, profile r12, ESBL Neg): R; resistance found with modular kit ([14]; E. coli, profile r13): R; resistance found with modular kit ([14]; E. coli, profile r14, ESBL Pos): R; resistance found with modular kit ([14]; E. coli, profile r15, ESBL Pos): R; resistance found with modular kit ([15]; K. pneumoniae (5 samples), profile r17, ESBL Pos): R; resistance found with modular kit ([15]; K. pneumoniae, profile r18, ESBL Pos): R; resistance found with modular kit ([15]; K. pneumoniae, profile r19): R; resistance found with modular kit ([15]; K. pneumoniae, profile r20, ESBL Pos): R; resistance found with modular kit ([15]; K. pneumoniae, profile r21, ESBL Neg): R; resistance found with modular kit ([16]; Proteus mirabilis (3 samples), profile r25, ESBL Pos): R; resistance found with modular kit ([16]; Proteus mirabilis, profile r26, ESBL Pos): R; resistance found with modular kit ([16]; Proteus mirabilis, profile r27, ESBL Neg): R |
| CO/N=C(\C(=O)N[C@@H]1C(=O)N2C(C(=O)O)=C(CSc3nc(=O)c(=O)[nH]n3C)CS[C@H]12)c1csc(N)n1 [Cro, Ceftriaxone] | R | S | S | S | S | S[nd] | S | S | S | S | R | S | R | S | R | S | S | S | S | S[nd] | CLP result differing from ART (in brackets) [17]: R; CLP result differing from ART (in brackets) [18]: R |
| CO/N=C(\C(=O)N[C@@H]1C(=O)N2C(C(=O)O)=C(COC(N)=O)CS[C@H]12)c1ccco1 [Cxm, Cefuroxime] | R | S | S | S | S | S[nd] | R | S | R | S | R | S | R | R | R | R | S | S | S | S[nd] | – |
| O=C(O)[C@H]1/C(=C/CO)O[C@@H]2CC(=O)N21 [RR, clavulanic acid] | – | – | – | – | – | – | – | – | – | – | – | – | – | – | – | – | – | – | – | – | Effect of clavulanic acid (Reduced Resistance) ([13]; profile r23): N; Effect of clavulanic acid (Reduced Resistance) ([14]; E. coli, profile r12): N; Effect of clavulanic acid (Reduced Resistance) ([15]; K. pneumoniae, profile r20): N; protection from hydrolysis [19]: no protection from hydrolysis |
